The values below come from patent publication US9073918B2, “Pyrazolo[4,3-b]pyridine-7-amine inhibitors of ALK5” (Takeda Pharmaceutical Company Limited, priority 2010, dated 2015).

One assay has as its target T1, TGF-β R1 ALK5 (Homo sapiens, UniProt P36897).
T1 construct: purchased Invitrogen PV5837
T1 sequence (P36897 34-503): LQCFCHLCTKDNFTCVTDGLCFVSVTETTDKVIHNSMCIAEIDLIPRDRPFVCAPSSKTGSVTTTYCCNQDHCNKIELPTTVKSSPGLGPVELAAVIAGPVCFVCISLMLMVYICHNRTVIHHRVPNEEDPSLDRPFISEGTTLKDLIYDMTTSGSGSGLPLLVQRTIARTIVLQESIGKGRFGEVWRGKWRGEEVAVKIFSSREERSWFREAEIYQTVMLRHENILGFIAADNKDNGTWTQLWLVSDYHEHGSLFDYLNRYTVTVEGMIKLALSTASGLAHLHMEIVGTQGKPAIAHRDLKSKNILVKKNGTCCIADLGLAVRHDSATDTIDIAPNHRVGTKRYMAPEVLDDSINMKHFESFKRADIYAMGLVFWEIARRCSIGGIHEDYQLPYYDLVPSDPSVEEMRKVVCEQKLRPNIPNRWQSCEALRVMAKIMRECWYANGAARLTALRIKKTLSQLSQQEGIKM
As to the kind of experiment: In vitro inhibition of ALK5 (LanthaScreen activity assay, TR-FRET). Format: biochemical.

The next assay concerns the target T2, cellular TGF-β R1 ALK5 (Homo sapiens, UniProt P36897).
T2 construct: host or cells: CellSensor SBE-bla HEK 293T
T2 sequence (P36897 34-503): T1 sequence (P36897 34-503)
As to the kind of experiment: Cellular inhibition of ALK5 (CellSensor SBE-bla HEK 293T beta-lactamase reporter). Format: cell-based. As to conditions: cellular inhibition of ALK5, SBE-bla HEK 293T cells, TGFb-1 stimulated 5 hours; average where measured in multiple experiments. The text has this:
Test compounds were screened for cellular TGF-β R1 ALK5 inhibition by use of a CellSensor® SBE-bla HEK 293T (K1550, Invitrogen Corp. Madison, Wis.) cell line. The CellSensor® SBE-bla HEK 293T cell line contains a beta-lactamase reporter gene under control of the SBE response element stably integrated into HEK 293T cells. The SBE response element is a DNA region that binds activated SMADs which results from the binding of TGF-β to, and subsequent activation of ALK5.
The assay procedure was as follows:
CellSensor® SBE-bla HEK 293T cell line were plated at 12,000 cells/well in 40 ul DMEM plus 5 ug/ml blasticidin into 384-well, black-wall, clear-bottom assay plate and incubated overnight.
The following day 5 uL of 10×, 2.5-fold serially diluted test compounds in DMSO were added into cells to a final compound concentration of 1× and DMSO concentration of 0.5%. Assay was incubated for 1 hour at 37° C., 5% CO2, 5 uL of 100 ng/mL TGFb-1 was then added to activate ALK5 and incubated for 5 hours at 37° C., 5% CO2, 10 uL of detector, LiveBLAzer FRET B/G substrate (CCF4-AM, Invitrogen Corp. Madison, Wis.) was added to cells and incubated for 2 hours at RT. Assay was measured using Spectramax, a bottom-read fluorescence plate reader, at excitation setting of 405 nm and emission settings of 460 nm and 530 nm.
Response is defined as the ratio of background corrected 460 nm emission values/background corrected 530 nm emission values. Cellular activity was defined as percent inhibition of uninhibited ALK5 activity (wells treated with DMSO+TGF-β). The percent inhibition of cellular ALK5 at a given compound concentration is defined as: 100%×[1−(response compound+TGF-β/response DMSO+TGF-β)] where response compound+TGF-β is defined as the activity in the presence of test compound and response DMSO+TGF-β is defined as the uninhibited cellular ALK5 activity. The pIC50 value (negative log of the molar concentration of the compound that produces 50% inhibition) of a test compound is calculated by non-linear least squares curve fitting. pIC50 values, the negative of the log of the IC50, are calculated by non-linear curve fitting of the compound concentrations and percent of inhibition to the standard pIC50 equation.
Where inhibition was measured in multiple experiments the value in Table 2 is an average. N.T. means not tested.

Each structure is given as a SMILES string.

For `Cc1ccc(F)c(-c2cc(Nc3ccnc4cn(C[C@H](O)CO)nc34)ccn2)n1` [Example 69, (S)-3-(7-(3′-fluoro-6′-methyl-2,2′-bipyridin-4-ylamino)-2H-pyrazolo[4,3-b]pyridin-2-yl)propane-1,2-diol], the half-maximal inhibitory concentration (IC50) against TGF-β R1 ALK5 and on cellular TGF-β R1 ALK5 was 5010 nM throughout.

As for `Cc1ccc(F)c(-c2cc(Nc3ccnc4cnn(CC(C)(C)O)c34)ccn2)n1` [Example 70, 1-(7-(3′-fluoro-6′-methyl-2,2′-bipyridin-4-ylamino)-1H-pyrazolo[4,3-b]pyridin-1-yl)-2-methylpropan-2-ol], the IC50 is 15.8 nM on TGF-β R1 ALK5 and 31.6 nM on cellular TGF-β R1 ALK5.

Take `Cc1ccc(F)c(-c2cc(Nc3ccnc4cnn(CCO)c34)ccn2)n1` [Example 71, 2-(7-(3′-fluoro-6′-methyl-2,2′-bipyridin-4-ylamino)-1H-pyrazolo[4,3-b]pyridin-1-yl)ethanol]: the IC50 against TGF-β R1 ALK5 was 50.1 nM; against cellular TGF-β R1 ALK5, 63.1 nM.

`COCCn1ncc2nccc(Nc3ccnc(-c4nc(C)ccc4F)c3)c21` [Example 73, N-(3′-fluoro-6′-methyl-2,2′-bipyridin-4-yl)-1-(2-methoxyethyl)-1H-pyrazolo[4,3-b]pyridin-7-amine]: the concentration for half-maximal inhibition (IC50) was 15.8 nM on TGF-β R1 ALK5 and 63.1 nM on cellular TGF-β R1 ALK5.

On to `CNC(=O)n1ncc2nccc(Nc3cc(-c4cccc(C)n4)ncc3C)c21` [Example 81, 7-(5,6′-dimethyl-2,2′-bipyridin-4-ylamino)-N-methyl-1H-pyrazolo[4,3-b]pyridine-1-carboxamide], for which the IC50 was 63.1 nM against TGF-β R1 ALK5 and 126 nM against cellular TGF-β R1 ALK5.

Take `NC(=O)Cn1ncc2nccc(Nc3ccnc(-c4cc(F)ccc4F)c3)c21` [Example 86, 2-(7-(2-(2,5-difluorophenyl)pyridin-4-ylamino)-1H-pyrazolo[4,3-b]pyridin-1-yl)acetamide]: the IC50 against TGF-β R1 ALK5 was 50.1 nM; on cellular TGF-β R1 ALK5, 158 nM.

Consider `NC(=O)Cn1cc2nccc(Nc3ccnc(-c4cc(F)ccc4F)c3)c2n1` [Example 87, 2-(7-(2-(2,5-difluorophenyl)pyridin-4-ylamino)-2H-pyrazolo[4,3-b]pyridin-2-yl)acetamide], for which the IC50 against TGF-β R1 ALK5 was 25.1 nM; at cellular TGF-β R1 ALK5 it was 251 nM.

As for `Cc1ccc(F)c(-c2cc(Nc3c(F)cnc4cn(CC(N)=O)nc34)c(C)cn2)n1` [Example 88, 2-(6-fluoro-7-(3′-fluoro-5,6′-dimethyl-2,2′-bipyridin-4-ylamino)-2H-pyrazolo[4,3-b]pyridin-2-yl)acetamide], the figures for the 50% inhibitory concentration (IC50) on TGF-β R1 ALK5 and against cellular TGF-β R1 ALK5 were 10 nM and 158 nM, respectively.

For `Cc1ccc(F)c(-c2cc(Nc3ccnc4cnn(CC5CC5)c34)ccn2)n1` [Example 89, 1-(cyclopropylmethyl)-N-(3′-fluoro-6′-methyl-2,2′-bipyridin-4-yl)-1H-pyrazolo[4,3-b]pyridin-7-amine], the IC50 was 25.1 nM at TGF-β R1 ALK5 and 200 nM at cellular TGF-β R1 ALK5.

As to `Cc1ccc(F)c(-c2cc(Nc3ccnc4cn(CCCO)nc34)c(C)cn2)n1` [Example 90, 3-(7-(3′-fluoro-5,6′-dimethyl-2,2′-bipyridin-4-ylamino)-2H-pyrazolo[4,3-b]pyridin-2-yl)propan-1-ol], the IC50 was 7.94 nM against TGF-β R1 ALK5 and 63.1 nM against cellular TGF-β R1 ALK5.

`Cc1ccc(F)c(-c2cc(Nc3c(F)cnc4cn(CCO)nc34)c(C)cn2)n1` [Example 91, 2-(6-fluoro-7-(3′-fluoro-5,6′-dimethyl-2,2′-bipyridin-4-ylamino)-2H-pyrazolo[4,3-b]pyridin-2-yl)ethanol]: the IC50 at TGF-β R1 ALK5 was 20 nM; on cellular TGF-β R1 ALK5, 158 nM.

In the case of `CCNC(=O)n1ncc2nccc(Nc3nc(-c4cc(F)ccc4F)nc(C)c3C)c21` [Example 92, 7-(2-(2,5-difluorophenyl)-5,6-dimethylpyrimidin-4-ylamino)-N-ethyl-1H-pyrazolo[4,3-b]pyridine-1-carboxamide], the figures for the IC50 on TGF-β R1 ALK5 and at cellular TGF-β R1 ALK5 were 79.4 nM and 501 nM, respectively.

On to `CCNC(=O)n1ncc2nccc(Nc3ccnc(-c4cc(F)ccc4F)c3)c21` [Example 93, 7-(2-(2,5-difluorophenyl)pyridin-4-ylamino)-N-ethyl-1H-pyrazolo[4,3-b]pyridine-1-carboxamide], for which the 50% inhibitory concentration (IC50) against TGF-β R1 ALK5 was 5.01 nM; at cellular TGF-β R1 ALK5 it was 25.1 nM.

On to `CNC(=O)n1ncc2nccc(Nc3ccnc(-c4cc(F)ccc4F)c3)c21` [Example 94, 7-(2-(2,5-difluorophenyl)pyridin-4-ylamino)-N-methyl-1H-pyrazolo[4,3-b]pyridine-1-carboxamide], for which the IC50 against TGF-β R1 ALK5 is 2 nM; against cellular TGF-β R1 ALK5, 20 nM.

Consider `Cc1nc(-c2cc(F)ccc2F)cc(Nc2ccnc3c[nH]nc23)c1C` [Example 95, N-(6-(2,5-difluorophenyl)-2,3-dimethylpyridin-4-yl)-2H-pyrazolo[4,3-b]pyridin-7-amine], for which the half-inhibitory concentration (IC50) is 20 nM at TGF-β R1 ALK5 and 158 nM against cellular TGF-β R1 ALK5.

For `Cc1cnc(-c2cc(F)ccc2F)nc1Nc1ccnc2cn[nH]c12` [Example 96, N-(2-(2,5-difluorophenyl)-5-methylpyrimidin-4-yl)-1H-pyrazolo[4,3-b]pyridin-7-amine], the IC50 is 20 nM against TGF-β R1 ALK5 and 63.1 nM against cellular TGF-β R1 ALK5.

On to `CCNC(=O)n1ncc2nccc(Nc3nc(-c4cc(F)ccc4F)ncc3C)c21` [Example 97, 7-(2-(2,5-difluorophenyl)-5-methylpyrimidin-4-ylamino)-N-ethyl-1H-pyrazolo[4,3-b]pyridine-1-carboxamide], for which the values for the IC50 against TGF-β R1 ALK5 and at cellular TGF-β R1 ALK5 were 15.8 nM and 398 nM, respectively.

`Cc1ccc(F)c(-c2cc(Nc3ccnc4cnn(C[C@@H](C)O)c34)ccn2)n1` [Example 98, (R)-1-(7-(3′-fluoro-6′-methyl-2,2′-bipyridin-4-ylamino)-1H-pyrazolo[4,3-b]pyridin-1-yl)propan-2-ol]: the half-maximal inhibitory concentration (IC50) at TGF-β R1 ALK5 was 6.31 nM; on cellular TGF-β R1 ALK5, 25.1 nM.

As to `Cc1ccc(F)c(-c2cc(Nc3c(F)cnc4cn(CC(C)(C)O)nc34)c(C)cn2)n1` [Example 99, 1-(6-fluoro-7-(3′-fluoro-5,6′-dimethyl-2,2′-bipyridin-4-ylamino)-2H-pyrazolo[4,3-b]pyridin-2-yl)-2-methylpropan-2-ol], the half-maximal inhibitory concentration (IC50) against TGF-β R1 ALK5 was 501 nM; against cellular TGF-β R1 ALK5, 1260 nM.

For `Cc1ccc(F)c(-c2cc(Nc3c(F)cnc4cn(C[C@H](C)O)nc34)ccn2)n1` [Example 100A, (S)-1-(6-fluoro-7-(3′-fluoro-6′-methyl-2,2′-bipyridin-4-ylamino)-2H-pyrazolo[4,3-b]pyridin-2-yl)propan-2-ol], the figures for the IC50 against TGF-β R1 ALK5 and at cellular TGF-β R1 ALK5 were 398 nM and 1260 nM, respectively.

Turning to `Cc1ccc(F)c(-c2cc(Nc3c(F)cnc4cnn(C[C@H](C)O)c34)ccn2)n1` [Example 100B, (S)-1-(6-fluoro-7-(3′-fluoro-6′-methyl-2,2′-bipyridin-4-ylamino)-1H-pyrazolo[4,3-b]pyridin-1-yl)propan-2-ol], the IC50 is 63.1 nM against TGF-β R1 ALK5 and 251 nM at cellular TGF-β R1 ALK5.

For the compound `Cc1ccc(F)c(-c2cc(Nc3ccnc4cnn(CCF)c34)ccn2)n1` [Example 101, N-(3′-fluoro-6′-methyl-2,2′-bipyridin-4-yl)-1-(2-fluoroethyl)-1H-pyrazolo[4,3-b]pyridin-7-amine], the IC50 is 25.1 nM at TGF-β R1 ALK5 and 100 nM against cellular TGF-β R1 ALK5.

In the case of `Cc1ccc(F)c(-c2cc(Nc3ccnc4cn(CCF)nc34)ccn2)n1` [Example 102, N-(3′-fluoro-6′-methyl-2,2′-bipyridin-4-yl)-2-(2-fluoroethyl)-2H-pyrazolo[4,3-b]pyridin-7-amine], the 50% inhibitory concentration (IC50) on TGF-β R1 ALK5 was 15.8 nM; at cellular TGF-β R1 ALK5 it was 50.1 nM.

In the case of `Cc1ccc(F)c(-c2cc(Nc3ccnc4cn(CC(F)F)nc34)ccn2)n1` [Example 104, 2-(2,2-difluoroethyl)-N-(3′-fluoro-6′-methyl-2,2′-bipyridin-4-yl)-2H-pyrazolo[4,3-b]pyridin-7-amine], the IC50 is 79.4 nM at TGF-β R1 ALK5 and 316 nM at cellular TGF-β R1 ALK5.
